Results from ChEMBL document CHEMBL1201862, “PubChem BioAssay data set” (2004).
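Exposure lasted 48 hours, with cells grown in 96-well plates and compounds tested at five concentrations. At the GI50, growth is halved.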 Calls of active or inactive are those of the source. Cut-off read from the data, not from the text of the source: active = GI50 up to about 1.1 µM and inactive = higher. Where a SMILES comes first, the peptide text is derived from it. [ ]: non-standard residue; d: D form. The star is where a group is joined. ξ: configuration not given here. ξD = NC(CC(=O)O)C(=O)O; Boc = CC(C)(C)OC(=O)*; Aib = CC(C)(N)C(=O)O; OtBu = CC(C)(C)O*

Legend:
Assay in all cases: DTP human tumour cell line panel, 48 h
M14 = system: M14
U-251 = system: U-251
KM12 = system: KM12
MDA-MB-231 = system: MDA-MB-231
UACC-62 = system: UACC-62
EKVX = system: EKVX
SF-268 = system: SF-268
MDA-N = system: MDA-N
786-0 = system: 786-0
SNB-75 = system: SNB-75
IGROV-1 = system: IGROV-1
SK-MEL-5 = system: SK-MEL-5
SK-OV-3 = system: SK-OV-3
RXF 393 = system: RXF 393
A498 = system: A498
SN12C = system: SN12C
SNB-19 = system: SNB-19
NCI-H460 = system: NCI-H460

Measured: GI50

CS(=O)(=O)c1nc(-c2cc3c(c(S(C)(=O)=O)n2)CCCC3)cc2c1CCCC2
inactive: M14 > 100 µM | U-251 > 55.3 µM | KM12 > 100 µM | MDA-MB-231 56.5 µM | UACC-62 > 38.4 µM | EKVX > 70.1 µM | SF-268 11.8 µM | MDA-N > 100 µM | 786-0 41 µM | SNB-75 6.75 µM | IGROV-1 > 21.8 µM | SK-MEL-5 > 100 µM | SK-OV-3 > 35.1 µM | RXF 393 26.1 µM | A498 > 100 µM | SN12C > 100 µM | SNB-19 > 55.7 µM

CCOC(=O)c1cc(C2(OC)CCN(Cc3ccccc3)C2=O)c(-c2cc(C)no2)[nH]1 (stereo not drawn)
inactive: M14 > 100 µM | U-251 > 100 µM | NCI-H460 82.4 µM | KM12 > 100 µM | MDA-MB-231 > 100 µM | UACC-62 > 100 µM | EKVX 93.1 µM | SF-268 > 100 µM | MDA-N > 100 µM | 786-0 > 100 µM | SNB-75 > 100 µM | IGROV-1 > 100 µM | SK-MEL-5 97.1 µM | SK-OV-3 > 100 µM | RXF 393 99.5 µM | A498 > 100 µM | SNB-19 > 100 µM

CC(=O)[C@@H](C)C(=O)N1C(=O)OC[C@@]12[C@@H]1CC[C@@H](C1)C2(C)C
inactive: M14 > 100 µM | U-251 > 100 µM | NCI-H460 > 100 µM | KM12 > 100 µM | MDA-MB-231 > 100 µM | UACC-62 > 100 µM | EKVX > 100 µM | MDA-N > 100 µM | 786-0 > 100 µM | SNB-75 > 100 µM | IGROV-1 > 100 µM | SK-MEL-5 > 100 µM | SK-OV-3 > 100 µM | RXF 393 > 100 µM | A498 > 100 µM | SN12C > 100 µM | SNB-19 > 100 µM

COC(=O)C(C)(C)NC(=O)C(C)(C)NC(=O)C(CC(=O)OC(C)(C)C)NC(=O)OC(C)(C)C (stereo not drawn) (Boc-[ξD](OtBu)-[Aib]-[Aib]-OMe)
inactive: M14 > 100 µM | U-251 > 100 µM | NCI-H460 > 100 µM | KM12 > 100 µM | MDA-MB-231 > 100 µM | UACC-62 > 100 µM | EKVX > 100 µM | SF-268 3.71 µM | MDA-N > 10 µM | 786-0 > 100 µM | SNB-75 > 100 µM | IGROV-1 > 100 µM | SK-MEL-5 > 100 µM | SK-OV-3 > 100 µM | RXF 393 > 100 µM | A498 > 100 µM | SNB-19 > 100 µM
